From US20090099177A1, “PYRIDYL COMPOUNDS” (priority 2006, published 2009) come the findings set out here.

Where a name gives a salt, the structure may show the parent alone. Bounds are passed on as bounds.

One test has as its target T1, human EP1 receptor (Homo sapiens, UniProt P34995).
T1 construct: expressed in transfected cells; host or cells: CHO-K1
T1 sequence (P34995 1-402): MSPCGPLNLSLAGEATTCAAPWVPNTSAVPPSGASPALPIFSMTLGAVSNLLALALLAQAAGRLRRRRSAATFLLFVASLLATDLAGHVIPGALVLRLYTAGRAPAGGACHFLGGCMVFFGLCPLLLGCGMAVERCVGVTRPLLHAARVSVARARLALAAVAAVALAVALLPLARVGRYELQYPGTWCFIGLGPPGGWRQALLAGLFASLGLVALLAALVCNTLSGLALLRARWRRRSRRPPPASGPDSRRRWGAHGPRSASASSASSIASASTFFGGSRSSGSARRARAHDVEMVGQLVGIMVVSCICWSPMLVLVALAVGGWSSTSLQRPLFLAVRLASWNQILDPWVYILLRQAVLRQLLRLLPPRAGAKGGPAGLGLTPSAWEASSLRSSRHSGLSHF
Put plainly: human EP1 calcium mobilisation assay. In kind it is cell-based. The conditions noted are these: for Ki: human EP1, CHO-K1 cells, antagonism of PGE2, averages of a number of experiments, read-out: functional pKi value (converted). How it is done:
Briefly, the antagonist properties of compounds are assessed by their ability to inhibit the mobilisation of intracellular calcium ([Ca^2+]i) in response to activation of EP1 or EP3 receptors by the natural agonist hormone prostaglandin E2 (PGE2). Increasing concentrations of antagonist reduce the amount of calcium that a given concentration of PGE2 can mobilise. The net effect is to displace the PGE2 concentration-effect curve to higher concentrations of PGE2. The amount of calcium produced is assessed using a calcium-sensitive fluorescent dye such as Fluo-4, AM and a suitable instrument such as a Fluorimetric Imaging Plate Reader (FLIPR). Increasing amounts of [Ca^2+]i produced by receptor activation increase the amount of fluorescence produced by the dye and give rise to an increasing signal. The signal may be detected using the FLIPR instrument and the data generated may be analysed with suitable curve-fitting software.
The human EP1 or EP3 calcium mobilisation assay (hereafter referred to as ‘the calcium assay’) utilises Chinese hamster ovary-K1 (CHO-K1) cells into which a stable (pCIN; BioTechniques 20 (1996): 102-110) vector containing either EP1 or EP3 cDNA has previously been transfected. Cells are cultured in suitable flasks containing culture medium such as DMEM:F-12 supplemented with 10% v/v foetal calf serum, 2 mM L-glutamine, 0.25 mg/ml geneticin, 100 μM flurbiprofen and 10 μg/ml puromycin.
For assay, cells are harvested using a proprietary reagent that dislodges cells such as Versene. Cells are re-suspended in a suitable quantity of fresh culture media for introduction into a 384-well plate. Following incubation for 24 hours at 37° C. the culture media is replaced with a medium containing Fluo-4 and the detergent pluronic acid, and a further incubation takes place. Concentrations of compounds are then added to the plate in order to construct concentration-effect curves. This may be performed on the FLIPR in order to assess the agonist properties of the compounds. Concentrations of PGE2 are then added to the plate in order to assess the antagonist properties of the compounds.
The data so generated may be analysed by means of a computerised curve-fitting routine. The concentration of compound that elicits a half-maximal inhibition of the calcium mobilisation induced by PGE2 (pIC50) may then be estimated.
For orientation: Calcium assays in cells follow changes in intracellular calcium, usually with a dye or a luminescent sensor.

For test [1], the target named is T2, human prostanoid EP1 receptor (Homo sapiens, UniProt P34995).
T2 construct: expressed in transfected cells; host or cells: CHO-K1 (membrane fraction)
T2 sequence (P34995 1-402): T1 sequence (P34995 1-402)
Put plainly: Binding assay for the human prostanoid EP1 receptor (competition with [3H]-PGE2). The following applies: [3H]-PGE2 competition, human EP1, CHO-K1 membranes; averages of a number of experiments; read-out: pIC50 value (converted). The protocol: Competition assay using [^3H]-PGE2.
Compound potencies are determined using a radioligand binding assay. In this assay compound potencies are determined from their ability to compete with tritiated prostaglandin E2 ([^3H]-PGE2) for binding to the human EP1 receptor.
This assay utilises Chinese hamster ovary-K1 (CHO-K1) cells into which a stable vector containing the EP1 cDNA has previously been transfected. Cells are cultured in suitable flasks containing culture medium such as DMEM:F-12 supplemented with 10% v/v foetal calf serum, 2 mM L-glutamine, 0.25 mg/ml geneticin, 10 μg/ml puromycin and 10 μM indomethacin.
Cells are detached from the culture flasks by incubation in calcium and magnesium free phosphate buffered saline containing 1 mM disodium ethylenediaminetetraacetic acid (Na2EDTA) and 10 μM indomethacin for 5 min. The cells are isolated by centrifugation at 250×g for 5mins and suspended in an ice cold buffer such as 50 mM Tris, 1 mM Na2EDTA, 140 mM NaCl, 10 μM indomethacin (pH 7.4). The cells are homogenised using a Polytron tissue disrupter (2×10 s burst at full setting), centrifuged at 48,000×g for 20mins and the pellet containing the membrane fraction is washed (optional) three times by suspension and centrifugation at 48,000×g for 20mins. The final membrane pellet is suspended in an assay buffer such as 10 mM 2-[N-morpholino]ethanesulphonic acid, 1 mM Na2EDTA, 10 mM MgCl2 (pH 6). Aliquots are frozen at −80° C. until required.
For the binding assay the cell membranes, competing compounds and [^3H]-PGE2 (3 nM final assay concentration) are incubated in a final volume of 100 μl for 30 min at 30° C. All reagents are prepared in assay buffer. Reactions are terminated by rapid vacuum filtration over GF/B filters using a Brandell cell harvester. The filters are washed with ice cold assay buffer, dried and the radioactivity retained on the filters is measured by liquid scintillation counting in Packard TopCount scintillation counter.
The data are analysed using non linear curve fitting techniques to determine the concentration of compound producing 50% inhibition of specific binding (IC50).

Consider `O=C(Nc1cccc(Cc2cc(Cl)ccc2OCc2ccccc2)n1)C1CCCCC1` [Example 4, N-[6-({5-Chloro-2-[(phenylmethyl)oxy]phenyl}methyl)-2-pyridinyl]cyclohexanecarboxamide], for which the Ki on human EP1 receptor is at most 316 nM. Further, in test [1], the IC50 is at most 100 nM.
Taken in the same sequence, the figures for `CC(C)(C)CC(=O)Nc1cccc(Cc2cc(Cl)ccc2OCc2ccccc2)n1` [Example 5, N-[6-({5-Chloro-2-[(phenylmethyl)oxy]phenyl}methyl)-2-pyridinyl]-3,3-dimethylbutanamide] were at most 316 nM and at most 100 nM.
In the case of `O=C(Nc1ccc(CO)cc1)c1cccc(Cc2cc(Cl)ccc2OCc2ccc(Cl)cc2F)n1` [Example 13, 6-[(5-Chloro-2-{[(4-chloro-2-fluorophenyl)methyl]oxy}phenyl)methyl]-N-[4-(hydroxymethyl)phenyl]-2-pyridinecarboxamide], the Ki at human EP1 receptor is at most 10000 nM. The IC50 in test [1] is at most 100 nM.
Taken in the same sequence, the figures for `Fc1cc(Cl)ccc1COc1ccc(Cl)cc1Cc1cccc(-c2nc3ccccc3[nH]2)n1` [Example 19, 2-{6-[(5-Chloro-2-[([(4-chloro-2-fluorophenyl)methyl]oxy}phenyl)methyl]-2-pyridinyl]-1H-benzimidazole Hydrochloride] were at most 316 nM and at most 100 nM.
Taken in the same sequence, the figures for `Fc1cc(Cl)ccc1COc1ccc(Cl)cc1Cc1cccc(-c2nc3cncnc3[nH]2)n1` [Example 20, 8-{6-[(5-Chloro-2-{[(4-chloro-2-fluorophenyl)methyl]oxy}phenyl)methyl]-2-pyridinyl}-1H-purinehydrochloride] were at most 316 nM and at most 100 nM.
Take `CC(C)COc1ccc(Cl)cc1Cc1cccc(-c2nc3nccnc3[nH]2)n1` [Example 22, 2-[6-({5-Chloro-2-[(2-methylpropyl)oxy]phenyl}methyl)-2-pyridinyl]-1H-imidazo[4,5-b]pyrazine hydrochloride]: the Ki at human EP1 receptor was at most 316 nM. Also, in test [1], the IC50 is at most 100 nM.
Taken in the same sequence, the figures for `CN(C)c1ccc2nc(-c3cccc(Cc4cc(Cl)ccc4OCc4ccccc4)n3)[nH]c2c1` [Example 27, 2-[6-({5-Chloro-2-[(phenylmethyl)oxy]phenyl}methyl)-2-pyridinyl]-N,N-dimethyl-1H-benzimidazol-5-aminehydrochloride] were at most 10000 nM and at most 100 nM.
Taken in the same sequence, the figures for `Clc1ccc(OCc2ccccc2)c(Cc2cccc(-c3nc4ccc(N5CCOCC5)cc4[nH]3)n2)c1` [Example 28, 2-[6-({5-Chloro-2-[(phenylmethyl)oxy]phenyl}methyl)-2-pyridinyl]-5-(4-morpholinyl)-1H-benzimidazolehydrochloride] were at most 316 nM and at most 100 nM.
With `Cc1ccc2[nH]c(-c3cccc(Cc4cc(Cl)ccc4OCc4ccccc4)n3)nc2c1` [Example 29, 2-[6-({5-Chloro-2-[(phenylmethyl)oxy]phenyl}methyl)-2-pyridinyl]-5-methyl-1H-benzimidazole Hydrochloride], the Ki on human EP1 receptor is at most 10000 nM. The IC50 in test [1] is at most 100 nM.
In the case of `Clc1ccc(OCc2ccccc2)c(Cc2cccc(-c3nc4ncccc4[nH]3)n2)c1` [Example 30, 2-[6-({5-Chloro-2-[(phenylmethyl)oxy]phenyl}methyl)-2-pyridinyl]-1H-imidazo[4,5-b]pyridinehydrochloride], the Ki at human EP1 receptor is at most 316 nM. Besides, the IC50 in test [1] is at most 100 nM.
Taken in the same sequence, the figures for `COc1ccc2[nH]c(-c3cccc(Cc4cc(Cl)ccc4OCc4ccccc4)n3)nc2c1` [Example 31, 2-[6-({5-Chloro-2-[(phenylmethyl)oxy]phenyl}methyl)-2-pyridinyl]-5-(methyloxy)-1H-benzimidazolehydrochloride] were at most 316 nM and at most 100 nM.
Consider `Clc1ccc(OCc2ccccc2)c(Cc2cccc(-c3nc4ccccc4[nH]3)n2)c1` [Example 34, 2-[6-({5-Chloro-2-[(phenylmethyl)oxy]phenyl}methyl)-2-pyridinyl]-1H-benzimidazole hydrochloride], for which the Ki at human EP1 receptor was at most 316 nM. Further, the IC50 in test [1] is at most 100 nM.
Taken in the same sequence, the figures for `Clc1ccc(OCc2ccccc2)c(Cc2cccc(-c3nc4cc(Cl)ccc4[nH]3)n2)c1` [Example 35, 5-Chloro-2-[6-({5-Chloro-2-[(phenylmethyl)oxy]phenyl}methyl)-2-pyridinyl]-1H-benzimidazole hydrochloride] were at most 316 nM and at most 100 nM.
Taken in the same sequence, the figures for `Fc1ccc2[nH]c(-c3cccc(Cc4cc(Cl)ccc4OCc4ccccc4)n3)nc2c1` [Example 36, 2-[6-({5-Chloro-2-[(phenylmethyl)oxy]phenyl}methyl)-2-pyridinyl]-5-fluoro-1H-benzimidazolehydrochloride] were at most 316 nM and at most 100 nM.
On to `CC(C)COc1ccc(Cl)cc1Cc1cccc(-c2nc3ccccc3[nH]2)n1` [Example 44, 2-[6-({5-Chloro-2-[(2-methylpropyl)oxy]phenyl}methyl)-2-pyridinyl]-1H-benzimidazole], for which the Ki on human EP1 receptor was at most 316 nM. Moreover, in test [1], the IC50 is at most 100 nM.
Taken in the same sequence, the figures for `CNCc1ccc2nc(-c3cccc(Cc4cc(Cl)ccc4OCC(C)C)n3)[nH]c2c1` [Example 52, ({2-[6-({5-Chloro-2-[(2-methylpropyl)oxy]phenyl}methyl)-2-pyridinyl]-1H-benzimidazol-5-yl}methyl)methylaminehydrochloride] were at most 316 nM and at most 100 nM.
With `CN(C)Cc1ccc(NC(=O)c2cccc(Cc3cc(Cl)ccc3OCc3ccc(Cl)cc3F)n2)cc1` [Example 53, 6-[(5-Chloro-2-{[(4-chloro-2-fluorophenyl)methy]oxy}phenyl)methyl]-N-{4-[(dimethylamino)methyl]phenyl}-2-pyridinecarboxamide], the IC50 in test [1] is at most 100 nM.
As to `CN(CCC#N)Cc1ccc(NC(=O)c2cccc(Cc3cc(Cl)ccc3OCc3ccc(Cl)cc3F)n2)cc1` [Example 57, 6-[(5-Chloro-2-{[(4-chloro-2-fluorophenyl)methyl]oxy}phenyl)methyl]-N-(4-{[(2-cyanoethyl)(methyl)amino]methyl}phenyl)-2-pyridinecarboxamide], the Ki at human EP1 receptor was at most 10000 nM. Moreover, the IC50 in test [1] is at most 100 nM.
With `CN(C)Cc1ccc2nc(-c3cccc(Cc4cc(Cl)ccc4OCc4ccc(Cl)cc4F)n3)[nH]c2c1` [Example 58, [(2-{6-[(5-Chloro-2-{[(4-chloro-2-fluorophenyl)methyl]oxy}phenyl)methyl]-2-pyridinyl}-1H-benzimidazol-5-yl)methyl]dimethylamine Hydrochloride], the IC50 is over 10000 nM at human EP1 receptor (human EP1 calcium mobilisation assay, read-out: pIC50 values (converted)) and at most 100 nM in test [1].
